# Test results as given in patent publication US10988466B2, “Heterocyclic derivatives useful as SHP2 inhibitors” (Jacobio Pharmaceuticals Co., Ltd., priority 2017, dated 2021).
# Target: T1, SHP2 (Homo sapiens, UniProt Q06124)
# T1 sequence (Q06124 1-593): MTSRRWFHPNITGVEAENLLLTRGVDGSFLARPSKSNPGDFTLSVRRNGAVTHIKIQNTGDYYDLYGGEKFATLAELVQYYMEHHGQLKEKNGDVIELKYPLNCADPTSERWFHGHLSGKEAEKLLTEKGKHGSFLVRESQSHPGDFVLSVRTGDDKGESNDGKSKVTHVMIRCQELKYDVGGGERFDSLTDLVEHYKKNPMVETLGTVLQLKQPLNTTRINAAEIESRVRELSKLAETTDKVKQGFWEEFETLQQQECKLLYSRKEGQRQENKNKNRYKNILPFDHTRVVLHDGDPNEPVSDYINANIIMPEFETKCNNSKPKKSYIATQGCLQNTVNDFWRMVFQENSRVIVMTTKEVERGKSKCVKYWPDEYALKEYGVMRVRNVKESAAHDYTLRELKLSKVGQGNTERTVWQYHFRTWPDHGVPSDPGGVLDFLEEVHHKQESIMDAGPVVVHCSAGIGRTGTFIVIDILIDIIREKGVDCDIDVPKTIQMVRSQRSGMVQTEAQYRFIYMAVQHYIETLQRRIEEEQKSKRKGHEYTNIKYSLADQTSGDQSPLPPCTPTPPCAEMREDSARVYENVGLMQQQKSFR
# Experiment: biochemical
# Conditions: read-out: SHP2 inhibition (%)@0.1 μM
# 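Also: compounds preincubated 30 min at room temperature in the assay mixture, activity referenced to a 0.5% (v/v) DMSO control taken as 100%, run in triplicate.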
row,SMILES,inhibition at 0.1 µM [%]
1,"Nc1nc(N2CCC3(CC2)c2ncccc2C[C@H]3N)cnc1Sc1ccnc(N)c1Cl [Example 4, (R)-1′-(6-amino-5-((2-amino-3-chloropyridin-4-yl)thio)pyrazin-2-yl)-5,6-dihydrospiro[cyclopenta[b]pyridine-7,4′-piperidin]-6-amine]",20
2,"CC(=O)N1CC(F)(F)c2c(Sc3ncc(N4CCC5(CC4)c4ccccc4C[C@H]5N)nc3N)cccc21 [Example 6, (R)-1-(4-((3-amino-5-(2-amino-2,3-dihydrospiro[indene-1,4′-piperidin]-1′-yl)pyrazin-2-yl)thio)-3,3-difluoroindolin-1-yl)ethan-1-one]",66
3,"Nc1nc(N2CCC3(CC2)Cc2cccnc2C[C@H]3N)cnc1Sc1ccnc(N)c1Cl [Example 9, (R)-1-(6-amino-5-((2-amino-3-chloropyridin-4-yl)thio)pyrazin-2-yl)-7,8′-dihydro-5′H-spiro [piperidine-4,6′-quinolin]-7′-amine]",54
4,"COc1ccc2c(c1)CC1(CCN(c3cnc(Sc4ccnc(N)c4Cl)c(N)n3)CC1)[C@@H]2N [Example 11, (S)-1′-(6-amino-5-((2-amino-3-chloropyridin-4-yl)thio)pyrazin-2-yl)-5-methoxy-1,3-dihydrospiro [indene-2,4′-piperidin]-1-amine]",74
5,"Nc1nc(N2CCC3(CC2)Cc2ccc(Cl)cc2[C@H]3N)cnc1Sc1ccnc(N)c1Cl [Example 15, (S)-1′-(6-amino-5-((2-amino-3-chloropyridin-4-yl)thio)pyrazin-2-yl)-6-chloro-1,3-dihydrospiro[indene-2,4′-piperidin]-1-amine]",83
6,"N#Cc1cccc2c1CC1(CCN(c3cnc(Sc4ccnc(N)c4Cl)c(N)n3)CC1)[C@@H]2N [Example 16, (S)-1-amino-1′-(6-amino-5-((2-amino-3-chloropyridin-4-yl)thio)pyrazin-2-yl)-1,3-dihydrospiro [indene-2,4′-piperidine]-4-carbonitrile]",75
7,"Nc1nc(N2CCC3(CC2)Cc2ccccc2[C@@H]3N)cnc1Sc1ccnc(N)c1Cl [Example 18, (R)-1′-(6-amino-5-((2-amino-3-chloropyridin-4-yl)thio)pyrazin-2-yl)-1,3-dihydrospiro[indene-2,4′-piperidin]-1-amine]",35
8,COc1cc2c(cn1)[C@@H](N)C1(CCN(c3cnc(Sc4ccnc(N)c4Cl)c(N)n3)CC1)C2 [Example 20],86
9,"Nc1nc(N2CCC3(CC2)Cc2ccncc2[C@H]3N)cnc1Sc1ccnc(N)c1Cl [Example 21, (S)-1′-(6-amino-5-((2-amino-3-chloropyridin-4-yl)thio)pyrazin-2-yl)-5,7-dihydrospiro[cyclopenta [c]pyridine-6,4′-piperidin]-7-amine]",49
10,"Nc1nc(N2CCC3(CC2)Cc2cnccc2[C@H]3N)cnc1Sc1ccnc(N)c1Cl [Example 22, (S)-1′-(6-amino-5-((2-amino-3-chloropyridin-4-yl)thio)pyrazin-2-yl)-5,7-dihydrospiro [cyclopenta[c]pyridine-6,4′-piperidin]-5-amine]",30
11,"Cc1ccc2c(c1)[C@@H](N)C1(CCN(c3cnc(Sc4ccnc(N)c4Cl)c(N)n3)CC1)C2 [Example 23, (S)-1′-(6-amino-5-((2-amino-3-chloropyridin-4-yl)thio)pyrazin-2-yl)-6-methyl-1,3-dihydro-spiro[indene-2,4′-piperidin]-1-amine]",71
12,"C[S+]([O-])c1ccc2c(c1)[C@@H](N)C1(CCN(c3cnc(Sc4ccnc(N)c4Cl)c(N)n3)CC1)C2 (stereo partly drawn) [Example 25, (1S)-1′-(6-amino-5-((2-amino-3-chloropyridin-4-yl)thio)pyrazin-2-yl)-6-(methylsulfinyl)-1,3-dihydrospiro [indene-2,4′-piperidin]-1-amine]",72
13,"CN(C)C(=O)c1ccc2c(c1)[C@@H](N)C1(CCN(c3cnc(Sc4ccnc(N)c4Cl)c(N)n3)CC1)C2 [Example 27, (S)-1-amino-1′-(6-amino-5-((2-amino-3-chloropyridin-4-yl)thio)pyrazin-2-yl)-N,N-dimethyl-1,3-dihydrospiro [indene-2,4′-piperidine]-6-carboxamide]",79
14,"Nc1nc(N2CCC3(CC2)Cc2ccc(Br)cc2[C@H]3N)cnc1Sc1ccnc(N)c1Cl [Example 28, (S)-1′-(6-amino-5-((2-amino-3-chloropyridin-4-yl)thio)pyrazin-2-yl)-6-bromo-1,3-dihydro-spiro[indene-2,4′-piperidin]-1-amine]",75
15,"Nc1nc(N2CCC3(CC2)Cc2c(Br)cccc2[C@H]3N)cnc1Sc1ccnc(N)c1Cl [Example 29, (S)-1′-(6-amino-5-((2-amino-3-chloropyridin-4-yl)thio)pyrazin-2-yl)-4-bromo-1,3-dihydro-spiro[indene-2,4′-piperidin]-1-amine]",77
16,"Nc1nc(N2CCC3(CC2)Cc2c(ccc4ccccc24)[C@H]3N)cnc1Sc1ccnc(N)c1Cl [Example 31, (S)-1′-(6-amino-5-((2-amino-3-chloropyridin-4-yl)thio)pyrazin-2-yl)-1,3-dihydrospiro[cyclopenta [a]naphthalene-2,4′-piperidin]-3-amine]",70
17,"COc1cc2c(cc1Cl)[C@@H](N)C1(CCN(c3cnc(Sc4ccnc(N)c4Cl)c(N)n3)CC1)C2 [Example 32, (S)-1′-(6-amino-5-((2-amino-3-chloropyridin-4-yl)thio)pyrazin-2-yl)-6-chloro-5-methoxy-1,3-dihydrospiro[indene-2,4′-piperidin]-1-amine]",85
18,"Nc1ccc2c(c1)[C@@H](N)C1(CCN(c3cnc(Sc4ccnc(N)c4Cl)c(N)n3)CC1)C2 [Example 33, (S)-1′-(6-amino-5-((2-amino-3-chloropyridin-4-yl)thio)pyrazin-2-yl)-1,3-dihydrospiro[indene-2,4′-piperidine]-1,6-diamine]",81
19,"Nc1nc(N2CCC3(CC2)Cc2ccc(-n4ccnc4)cc2[C@H]3N)cnc1Sc1ccnc(N)c1Cl [Example 36, (S)-1′-(6-amino-5-((2-amino-3-chloropyridin-4-yl)thio)pyrazin-2-yl)-6-(1H-imidazol-1-yl)-1,3-dihydrospiro [indene-2,4′-piperidin]-1-amine]",65
20,"Nc1nc(N2CCC3(CC2)Cc2ccc(-n4cccc4)cc2[C@H]3N)cnc1Sc1ccnc(N)c1Cl [Example 37, (S)-1′-(6-amino-5-((2-amino-3-chloropyridin-4-yl)thio)pyrazin-2-yl)-6-(1H-pyrrol-1-yl)-1,3-dihydro-spiro[indene-2,4′-piperidin]-1-amine]",76
21,"Nc1nc(N2CCC3(CC2)Cc2cc(F)c(Br)cc2[C@H]3N)cnc1Sc1ccnc(N)c1Cl [Example 38, (S)-1′-(6-amino-5-((2-amino-3-chloropyridin-4-yl)thio)pyrazin-2-yl)-6-bromo-5-fluoro-1,3-dihydrospiro[indene-2,4′-piperidin]-1-amine]",75
22,"Nc1nc(N2CCC3(CC2)Cc2cc(F)c(F)cc2[C@H]3N)cnc1Sc1ccnc(N)c1Cl [Example 39, (S)-1′-(6-amino-5-((2-amino-3-chloropyridin-4-yl)thio)pyrazin-2-yl)-5,6-difluoro-1,3-dihydro-spiro[indene-2,4′-piperidin]-1-amine]",67
